Assay results reported in patent publication US8247227B2, “Dendritic cell precursors” (The Cleveland Clinic Foundation, priority 2006, dated 2012).

Experiments:
[1] = tested on: Flt3L+IL6 conditioned BM cells; experiment: Immunosuppressive factors added to Step 2 culture: DC1 polarization; assay type: cell-based, mouse; conditions: factor added in Step 2, TLR agonist-induced
Method: FIG. 7A is a histogram showing Step 2 cultures (cells were re-plated in GMCSF and IL-4 at 0 hr, CpG+LPS added at 24 hr, FACS performed at 44 hr), except that listed immunosuppressive factors were added at 0 hr, 1 hr, 2 hr, or 4 hr of Step 2 culture, and supernatants analyzed by ELISA in triplicate for IL-12 p70 content at 44 hr of Step 2 culture. Error bars indicate s.d. This is representative of three experiments;
We investigated whether Flt3L+IL6 proliferative conditioning conferred uniform responsiveness to DC1 polarization stimuli even in the presence of putative immunosuppressive factors. We added IL10, TGFβ1 VEGF, or PGE2 at doses which equaled and exceeded those reported to inhibit the maturation of other DC preparations (Kao, J Y et al. J. Immunol. 170, 3806-3811 (2003); Kobie, J J et al. Cancer Res. 63, 1860-1864 (2003); Gabrilovich, D. et al. Blood 92, 4150-4166 (1998); Dikov, M M et al. J. Immunol. 174, 215-222 (2005); Shurin, M R et al. Int. J. Cancer 101, 61-68 (2002); Yang, A S et al. Cancer Res. 63, 2150-2157 (2003); Kalinski, P. et al. J. Immunol. 161, 2804-2809 (1998)).
(§1) Step 2 was initiated (0 hr) in CM, rmGMCSF and optionally rmIL4. Step 2 cultures were performed in 24 well cluster plates, 4 million BM cells per well in 2 ml CM. DC1 polarization stimuli such as CpG (ODN 1826, 5 μM) and LPS 50 ng/ml were added between 18-24 hrs, and cells harvested at 40-44 hrs for analyses. When included, immunosuppressive agents rmIL10, rmVEGF, rhTGFβ1 or PGE2 were added between 0 and 24 hrs of Step 2 culture at doses specified in Results. Alternatively, particulate tumor cells, either viable unirradiated, viable irradiated (10,000 cGy), or killed freeze-thawed lysate (Cohen, P A et al. Cancer Res. 54, 1055-1058 (1994)), were added to Step 2 BM cells. Viable tumor cells were sometimes labelled with CFSE (Molecular Probes, Eugene, Oreg.) to allow their identification and exclusion during subsequent FACS analyses (Peng, L. et al. J. Immunol. 169, 4811-4821 (2002)).

L-selectin^low T cells = experiment: T cell co-cultures with variously conditioned DCs; assay type: cell-based, mouse; conditions: DCs from other conditioning treatments
Method: Step 2 DC cultures were performed in rGMCSF and rIL-4 with irradiated MCA-203 cells added at 24 hr and CpG+LPS added at 44 hr. Four hours later, DCs were harvested for co-culture with L-selectin^low T cells freshly harvested from MCA-203 tumor-bearing mice. T cells were co-cultured with DCs at an 8:1 ratio or were activated with immobilized anti-CD3. […] Cultures shown also received exogenous IL-2, IL-7 and IL-15.
Cultures shown also received exogenous IL2, IL7 and IL15.
Conditioned DC precursors were transferred to Step 2 culture, exposed to viable irradiated tumor, optionally further activated with CpG+LPS, then co-cultured with tolerized TDLN T cells from mice bearing the relevant tumor.
Prior to harvest of T cells from tumor-bearing mice, DCs were prepared under various Step 1 conditions in CM; Step 2 was performed in 1% non heat-deactivated mouse serum instead of FCS (CM-MS), during which BM cultures were exposed to viable irradiated tumor cells, then CpG+LPS as denoted in Results. On the day of DC harvest, T cells were freshly harvested from the tumor-draining lymph nodes of mice bearing 12 day tumors. The L-selectin^low (tolerized pre-effector) fraction of T cells was isolated by negative selection as described previously (Peng, L. et al. J. Immunol. 165, 5738-5749 (2000); Wang, L. et al. J. Translational Med. 2, 41 (2004)), and cultured in CM-MS with immobilized anti-CD3 (Peng, L. et al. J. Immunol. 165, 5738-5749 (2000); Wang, L. et al. J. Translational Med. 2, 41 (2004)) or variously conditioned DCs. Beginning on day 2 of T cell culture, some groups also received rhIL2 (24 I.U./m1), or rhIL2, rhIL7 (50 ng/ml) and rhIL15 (5 ng/ml). T cells were harvested for assays and adoptive therapy after 12 days of culture.

[2] = tested on: CD34^pos stem cell subpopulation; experiment: Step 1 proliferative culture of fresh bone marrow: numeric expansion; assay type: cell-based, mouse; conditions: for superimposed proliferative impacts: added to Step 1 culture; for effectiveness as alternative Step 1 factor: rhIL6 100 ng/ml instead of mIL6, rSCF instead of mSCF
Method: FIG. 6 is a chart showing numeric expansion resulting from the exposure of bone marrow (BM) suspensions to various factors. BM freshly harvested from C57BL/6 mice was cultured for 6 days in the specific factors, then harvested and counted. Each bar represents 3-11 determinations±s.d., each performed in synchronous comparison to at least five other groups. […] Synergistic expansions reflected a 35-80 fold selective outgrowth of the CD34^pos subpopulation (see FIG. 10);
FIG. 10 is a histogram showing gross numeric expansion of fresh bone marrow (BM) reflective of selective outgrowth of the CD34^pos subpopulation. Freshly prepared mouse BM cell suspensions were stained with FITC-anti-CD34 mAb to enable isolation of CD34^pos and CD34^neg subpopulations by a FACSAria cell sorter. CD34^pos cells initially represented 10.8±7% of the total BM cells. The following groups were then cultured for 6 days in 75 cm^2 flasks, either in Flt3L+SCF+IL6 (striped bars) or in Flt3L+IL6 (solid bars): “Unfractionated BM” (12-15 million per flask); “FACS sorted CD34^neg cells” (12-15 million per flask); “FACS sorted CD34^pos cells” (2-3 million per flask); or “FACS sorted, unirradiated CD34^pos cells plus irradiated (3,000 cGy) CD34^neg cells.” Labels above bars indicate fold numeric expansion during the 6 day culture. […] (Not done=group not done);
We cultured fresh mouse BM in two stages, a 6-7 day proliferative phase (Step 1) and a 2-3 day post-proliferative phase (Step 2). […] FACS sorting experiments confirmed that such expansion represented a net 35-80 fold proliferation of the minor (<12%) CD34^pos stem cell subpopulation, with rapid dropout of the initially CD34^neg subpopulation (FIG. 10). Stem cell proliferation persisted well past day 7 if medium and factors were adequately replenished (not shown).
Single cell suspensions were prepared from the femurs and tibias of healthy mice (Kuriyama, H. et al. Dev. Biol. (Basel) 116, 169-178 (2004)). Following RBC lysis by ammonium chloride, no further processing was performed. […] BM cells were normally cultured for 6-7 days, harvested, counted, and washed twice in PBS prior to initiation of Step 2 cultures.

[3] = tested on: CD11c^pos cells and CD34^pos cells; experiment: In vivo cytokine treatment for six days: spleen and BM CD11c^pos and CD34^pos cells; design: species or system BALB/c mice; conditions: with rhFlt3-L 10 mcg i.p. daily
Source text: FIGS. 15A-D are a series of graphs showing BALB/c mice treated for six days with either (A) nothing, (B) rhFlt3-L 10 mcg i.p. daily, (C) rhIL-6 mcg i.p. three times daily, and (D) rhFlt3-L 10 mcg i.p. daily plus rhIL-6 50 mcg i.p. three times daily. The next day mice were euthanized, spleens and BM harvested, and CD11c^pos cells (committed DC lineage) and CD34^pos cells (stem cells, potential DC precursors) quantified. Results are representative of four experiments. […] This is representative of four experiments;
FIGS. 16A-D are a series of graphs showing BALB/c mice treated for six days with either (A) nothing, (B) rhFlt3-L 10 mcg i.p. daily, (C) rhFlt3-L 10 mcg i.p. daily plus rhIL-6 50 mcg i.p. three times daily, (D) rhFlt3-L 10 mcg i.p. daily plus rhIL-6 50 mcg i.p. once daily, (E) rhFlt3-L 10 mcg i.p. daily plus rhIL-6 10 mcg i.p. three times daily, and (F) rhFlt3-L 10 mcg i.p. daily plus rhIL-6 10 mcg i.p. once times daily. The next day mice were euthanized, spleens and BM harvested, and CD11c^pos cells (committed DC lineage) and CD34^pos cells (stem cells, potential DC precursors) quantified. Results are representative of three experiments.

BM cells = experiment: Step 2 culture: spontaneous DC maturation without exogenous maturation stimuli; assay type: cell-based, mouse; conditions: after Flt3L or Flt3L+IL6 conditioning
Source text: DC differentiation typically arrests at the immature stage unless DCs are exposed to additional signals such as CD40 ligation, calcium ionophore or TLR agonists (Xu, S. et al. J. Immunol. 171, 2251-2261 (2003); Bonifaz, L. et al. J. Exp. Med. 196, 1627-1638 (2002); Napolitani, G. et al. Nat. Immunol. 6, 769-776 (2005); Czerniecki, B J et al. J. Immunol. 159, 3823-3837 (1997); Mailliard, R B et al. Cancer Res. 64, 5934-5937 (2004)). […] Instead, uniform upregulation of MHC Class II and CD11c ensued within hours of transfer from Flt3L+IL6 into GMCSF, followed by upregulation of CD40, co-stimulatory molecules and CCR7 between 48 and 72 hours of Step 2 culture.
as §1

conditioned BM cells = experiment: Tumor contact during Step 2 culture: DC maturation and IL12 production; assay type: cell-based, mouse
Method: Because DC ingestion of cellular material can induce tolerogenic DCs (Bonifaz, L. et al. J. Exp. Med. 196, 1627-1638 (2002)), we tested the impact of exposing DCs to large volumes of tumor at 16-24 hours of Step 2 culture in GMCSF, to determine tumor's impact on subsequent spontaneous maturation. To cluster plate wells each containing 4 million conditioned BM cells, we added either 4 million freeze-thawed (killed) tumor cells; 3 million irradiated (10,000 cGy), trypan-excluding tumor cells; or 2 million unirradiated, actively proliferating tumor cells. Given the much larger dimensions of viable tumor cells compared to the cultured BM cells, these represented voluminous tumor challenges.
as §1

Molecule: CCCCC[C@H](O)/C=C/[C@H]1[C@H](O)CC(=O)[C@@H]1C/C=C\CCCC(=O)O [PGE2, prostaglandin E2, reference compound]
- impact upon DC1 polarization (phenotypic maturation, IL12) [1]: substantially inhibited

Molecule: IL15
- rescue of DC toxicity to T cells by exogenous cytokine (L-selectin^low T cells): could not be rescued

Molecule: TGFI31: immunosuppressive factor, recombinant human TGFβ1
- impact upon DC1 polarization (phenotypic maturation, IL12) [1]: paradoxically enhanced both phenotypic maturation and IL12 secretion

Molecule: VEGF
- impact upon DC1 polarization (phenotypic maturation, IL12) [1]: negligible impacts

Molecule: fibronectin
- superimposed proliferative impacts [2]: negligible superimposed proliferative impacts

Molecule: rhIL6: recombinant human interleukin-6
- 10 mcg versus 50 mcg dosing [3]: as effective as 50 mcg dosing
- thrice daily versus once daily administration [3]: more effective than once daily
- effectiveness as alternative Step 1 factor [2]: also effective

B1: IL4: recombinant mouse IL4 (protein, UniProt P07750 21-140, looked up)
Interleukin-4: HIHGCDKNHLREIIGILNEVTGEGTPCTEMDVPNVLTATKNTTESELVCRASKVLRIFYLKHGKTPCLKKNSSVLMELQRLFRAFRCLDSSISCTMNESKSTSLKDFLESLKSIMQMDYS
- spontaneous DC maturation with exogenous IL4 in Step 2 (BM cells): even more robust

B2: IL10: immunosuppressive factor, recombinant mouse IL10 (protein, UniProt P18893 19-178, looked up)
Interleukin-10: SRGQYSREDNNCTHFPVGQSHMLLELRTAFSQVKTFFQTKDQLDNILLTDSLMQDFKGYLGCQALSEMIQFYLVEVMPQAEKHGPEIKEHLNSLGEKLKTLRMRLRRCHRFLPCENKSKAVEQVKSDFNKLQDQGVYKAMNEFDIFINCIEAYMMIKMKS
- impact upon DC1 polarization (phenotypic maturation, IL12) [1]: negligible impacts

B3: IFNγ: recombinant mouse interferon gamma (protein, UniProt P01580 23-155, looked up)
Interferon gamma: HGTVIESLESLNNYFNSSGIDVEEKSLFLDIWRNWQKDGDMKILQSQIISFYLRLFEVLKDNQAISNNISVIESHLITTFFSNSKAKKDAFMSIAKFEVNNPQVQRQAFNELIRVVHQLLPESSLRKRKRSRC
- IL12 production (conditioned BM cells; IFNγ treatment alone): Neither tumor nor IFNγ treatment alone induced IL12 production
- IL12 (p70) production (conditioned BM cells; tumor exposure combined with IFNγ, Flt3L+IL6 conditioned): could induce IL12 (p70) production

B4: IL7 (protein, UniProt P13232 26-177, looked up)
Interleukin-7: DCDIEGKDGKQYESVLMVSIDQLLDSMKEIGSNCLNNEFNFFKRHICDANKEGMFLFRAARKLRQFLKMNSTGDFDLHLLKVSEGTTILLNCTGQVKGRKPAALGEAQPTKSLEENKSLKEQKKLNDLCFLKRLLQEIKTCWNKILMGTKEH
- rescue of DC toxicity to T cells by exogenous cytokine (L-selectin^low T cells): could not be rescued

B5: thrombopoeitin: recombinant murine thrombopoeitin (protein, UniProt P40226 22-356, looked up)
Thrombopoietin: SPVAPACDPRLLNKLLRDSHLLHSRLSQCPDVDPLSIPVLLPAVDFSLGEWKTQTEQSKAQDILGAVSLLLEGVMAARGQLEPSCLSSLLGQLSGQVRLLLGALQGLLGTQLPLQGRTTAHKDPNALFLSLQQLLRGKVRFLLLVEGPTLCVRRTLPTTAVPSSTSQLLTLNKFPNRTSGLLETNFSVTARTAGPGLLSRLQGFRVKITPGQLNQTSRSPVQISGYLNRTHGPVNGTHGLFAGTSLQTLEASDISPGAFNKGSLAFNLQGGLPPSPSLAPDGHTPFPPSPALPTTHGSPPQLHPLFPDPSTTMPNSTAPHPVTMYPHPRNLSQET
- superimposed proliferative impacts [2]: negligible superimposed proliferative impacts

B6: rSCF: recombinant stem cell factor, alternative to mSCF (protein, UniProt P20826 26-190, looked up)
Soluble KIT ligand: KEICGNPVTDNVKDITKLVANLPNDYMITLNYVAGMDVLPSHCWLRDMVIQLSLSLTTLLDKFSNISEGLSNYSIIDKLGKIVDDLVLCMEENAPKNIKESPKRPETRSFTPEEFFSIFNRSIDAFKDFMVASDTSDCVLSSTLGPEKDSRVSVTKPFMLPPVAA
- effectiveness as alternative Step 1 factor [2]: also effective
